“And” between values parts separate entries of the source, which are not always exact repeats. Equal values may be shown once. Where a SMILES comes first, the peptide text is derived from it. Bridges are numbered along the chain shown (N, C = ends). [ ]: non-standard residue; d: D form. Ala(cPent) = N[C@@H](CC1CCCC1)C(=O)O; AllylGly = C=CC[C@H](N)C(=O)O
Experiments:
[1] = Blood pressure measurements after intravenous injection
Method: Mean, systolic and diastolic arterial blood pressure and a heart rate were measured through a catheter (PE 50 filled with heparinized saline) inserted in the right carotid artery and connected to a Micro-Med transducer (model TDX-300, USA) linked to a blood pressure Micro-Med analyzer (model BPA-100c). […] Blood pressure was recorded each second for up to 1000 seconds following intravenous injection. […] Data represents the mean±SEM of 4-5 rats for each condition.

hNTS2 receptor = molecular target: T1, hNTS2 receptor (Homo sapiens, UniProt O95665); assay: Competitive radioligand binding assay on the hNTS2 receptor; conditions: for IC50: IC50 NTS2, displacement of 125I-[Tyr3]-NT, membranes of 1321N1 cells expressing hNTS2; for Selectivity: ratio IC50 for NTS1 : IC50 for NTS2
T1 construct: membranes prepared from them
T1 sequence (O95665 whole entry): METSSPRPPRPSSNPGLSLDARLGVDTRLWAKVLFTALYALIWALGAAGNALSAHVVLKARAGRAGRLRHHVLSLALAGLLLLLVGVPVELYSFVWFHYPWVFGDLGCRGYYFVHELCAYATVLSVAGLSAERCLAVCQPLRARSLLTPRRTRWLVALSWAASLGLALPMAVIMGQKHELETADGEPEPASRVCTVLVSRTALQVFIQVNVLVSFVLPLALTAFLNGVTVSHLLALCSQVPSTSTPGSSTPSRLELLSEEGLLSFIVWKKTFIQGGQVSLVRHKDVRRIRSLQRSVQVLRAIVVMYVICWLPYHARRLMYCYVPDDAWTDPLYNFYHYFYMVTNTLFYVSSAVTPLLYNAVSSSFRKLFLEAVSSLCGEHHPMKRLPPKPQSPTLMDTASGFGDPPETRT
In short: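 Membranes from CHO-K1 cells expressing hNTS1 (15 µg, […] ¹²⁵I-[Tyr³]-NT) or 1321N1 cells expressing hNTS2 (50 µg, […] radioligand) were incubated with analogues at 10⁻¹¹–10⁻⁴ M for 60 min at 25 °C in Tris-HCl pH 7.5/0.2% BSA. Filtration and γ-counting followed; nonspecific binding was defined with 10⁻⁵ M NT(8-13), and IC50 was obtained by one-site fit.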

Sprague-Dawley rats = assay: Formalin test (tonic pain model), intrathecal injection; assay type: in vivo, rat
Method: Experiments were performed with adults male Sprague-Dawley rats, weighing 225-300 g (Charles River laboratories, St Constant, Canada). Rats were housed two per cage on Aspen shavings in a quiet room and kept on a 12 h light/dark cycle and allowed ad libitum access to food and water. The experimental procedures in this study were approved by the Animal Care Committee of Université de Sherbrooke and were in accordance with policies and directives of the Canadian Council on Animal Care.
Rats were lightly anesthetized with isoflurane/oxygen (Baxter corporation, Mississauga, ON, Canada; 2 L/min) flow and injected intrathecally at the L5-L6 intervertebral space with concentrations ranging from 10 to 150 μg/kg of compound 34, 30 μg/kg of PD149163 or 61 nmol/kg of compounds 60, 67, 91 and 116 diluted in 0.9% saline or 0.9% saline alone.
Formalin test: The analgesic effect of compound 34 was assessed using the formalin test as a model of persistent pain. Before testing, animals were acclimatized to manipulations and to plexiglass chambers 30 min/day for three consecutive days. On test day, 5 minutes after intrathecal injection of compounds at increasing doses ranging from 30 to 150 μg/kg (FIGS. 7A-B) or 3 to 60 μg/kg (FIGS. 8A-D), the rats received a 50 μl of diluted 1.85% formaldehyde (i.e. 5% formalin; Bioshop, Burlington, Ontario) into the plantar surface of the right hind paw. […] The intraplantar injection of formalin produced the biphasic nociceptive response typical of this tonic pain model (Tjolsen et al., 1992). […] Nociceptive behavior was assessed using a weighted score as described previously (Dubuisson and Dennis 1977; Codere, 1993). […] The weighted average pain intensity score ranging from 0 to 3 was then calculated by multiplying the time spent in each category by the category weight, summing these products, and dividing by the total time in a given time interval. The pain score was thus calculated from the following formula (1T1+2T2+3T3)/180 where T1, T2, and T3 are the durations (in seconds) spent in behavioral categories 1, 2, or 3, respectively, during each 180 second block. The Area Under the Curve (AUC) was calculated during all the duration of the test (0-60 min). […]
Data are expressed as mean±standard errors of the mean (SEM). […] The % MPE for the tail-flick test and the areas under the curve for the formalin test were analyzed using a one-way ANOVA followed by a Dunnett's multiple comparisons test to compare different concentrations of compounds and saline treatment (FIGS. 2B, 4B, 7A-B and 8B-D). […]

Compound | Hypotension (i.v.) ([1]; 0.01, 0.1, 1 mg/kg i.v.) | IC50 (hNTS2 receptor) [nM] | Selectivity (hNTS2 receptor) | time spent in lifting (Sprague-Dawley rats; acute phase, from 60 μg/kg i.t.) | time spent in lifting (Sprague-Dawley rats; inflammatory phase, from 90 μg/kg i.t.) | Hypotension (i.v.) ([1]; 1 mg/kg i.v.) | ED50, formalin test (Sprague-Dawley rats; AUC of pain score, acute and inflammatory phases combined, i.t.) [nmol/kg] | pain score (Sprague-Dawley rats; all tested doses (from 10 nmol/kg) i.t.)
CC(C)C[C@H](NC(=O)[C@H](Cc1ccc(O)cc1)NC(=O)[C@@H]1CC=CC[C@H](N)C(=O)N[C@@H](CCCCN)C(=O)N[C@@H](CCCCN)C(=O)N1)C(=O)O [compound 34, c[G(All)KKG(All)]YL] (H-[AllylGly]KK[AllylGly]YL-OH; staple 1-4) | no significant hypotension | 59.6 | 3339 and 1685 | significantly decreased | significantly decreased |  |  | 
NCCCC[C@@H]1NC(=O)[C@H](CCCCN)NC(=O)[C@@H](N)CC=CC[C@@H](C(=O)N[C@@H](Cc2ccc(O)cc2)C(=O)N[C@@H](CC2CCCC2)C(=O)O)NC1=O [compound 67, c[G(All)KKG(All)]YA(cyclopentyl)] (H-[AllylGly]KK[AllylGly]Y[Ala(cPent)]-OH; staple 1-4) |  | 3.06 | >32 680 |  |  | no significant hypotension | 30 | significantly decreased

From patent US12358948B2, “Neurotensinergic agonists and methods of using same preventing or treating pain” (priority 2019, dated 2025)
